pKi: −log10 of the molar value.
target: Plk1 (Homo sapiens, UniProt P53350); test: biochemical
Sequence (P53350 20-338): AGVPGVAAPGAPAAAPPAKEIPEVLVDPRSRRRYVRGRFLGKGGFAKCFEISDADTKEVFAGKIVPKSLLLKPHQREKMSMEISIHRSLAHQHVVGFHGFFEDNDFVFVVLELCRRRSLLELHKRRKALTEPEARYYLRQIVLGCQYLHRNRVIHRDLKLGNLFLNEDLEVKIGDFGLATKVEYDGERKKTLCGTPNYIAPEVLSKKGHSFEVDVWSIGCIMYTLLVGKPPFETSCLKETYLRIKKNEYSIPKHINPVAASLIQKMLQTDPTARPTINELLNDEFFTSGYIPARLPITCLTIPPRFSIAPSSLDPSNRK

| pKi | Structure (SMILES) |
| --- | --- |
| > 8.00 | COc1cc(C(=O)NC2CC2)ccc1Nc1ncc2c(n1)N(C1CCCC1)C[C@H](C)C(=O)N2C [Compound I-175, 4-((S)-9-cyclopentyl-6,7,8,9-tetrahydro-5,7-dimethyl-6-oxo-5H-pyrimido[4,5-b][1,4]diazepin-2-ylamino)-N-cyclopropyl-3-methoxybenzamide] |
| 7.00 to 8.00 | CNC(=O)c1ccc(Nc2ncc3c(n2)N(CC(C)(C)C)CC(C)(C)C(=O)N3C)c(OC)c1 [Compound I-168, 4-(6,7,8,9-tetrahydro-5,7,7-trimethyl-9-neopentyl-6-oxo-5H-pyrimido[4,5-b][1,4]diazepin-2-ylamino)-3-methoxy-N-methylbenzamide] |
| > 8.00 | COc1cc(C(=O)NCCO)ccc1Nc1ncc2c(n1)N(C1CCCC1)CC(C)(C)C(=O)N2C [Compound I-264, 4-(9-cyclopentyl-5,7,7-trimethyl-6-oxo-6,7,8,9-tetrahydro-5H-pyrimido[4,5-b][1,4]diazepin-2-ylamino)-N-(2-hydroxyethyl)-3-methoxybenzamide] |
| > 8.00 | COc1cc(C(=O)NCC(C)(C)CO)ccc1Nc1ncc2c(n1)N(C1CCCC1)CC(C)(C)C(=O)N2C [Compound I-211, 4-(9-cyclopentyl-5,7,7-trimethyl-6-oxo-6,7,8,9-tetrahydro-5H-pyrimido[4,5-b][1,4]diazepin-2-ylamino)-N-(3-hydroxy-2,2-dimethylpropyl)-3-methoxybenzamide] |
| 7.00 to 8.00 | CNC(=O)c1cccc(Nc2ncc3c(n2)N(C2CCCC2)CC(C)(C)C(=O)N3C)c1 [Compound I-46, 3-(9-cyclopentyl-6,7,8,9-tetrahydro-5,7,7-trimethyl-6-oxo-5H-pyrimido[4,5-b][1,4]diazepin-2-ylamino)-N-methylbenzamide] |
| 7.00 to 8.00 | CNC(=O)c1ccc(Nc2ncc3c(n2)N(CC(F)(F)C(F)(F)F)CC(C)(C)C(=O)N3C)c(OC)c1 [Compound I-160, 4-(9-(2,2,3,3,3-pentafluoropropyl)-6,7,8,9-tetrahydro-5,7,7-trimethyl-6-oxo-5H-pyrimido[4,5-b][1,4]diazepin-2-ylamino)-3-methoxy-N-methylbenzamide] |
| > 8.00 | COc1cc(C(=O)NC2(CO)CCCC2)ccc1Nc1ncc2c(n1)N(C1CCCC1)CC(C)(C)C(=O)N2C [Compound I-254, 4-(9-cyclopentyl-5,7,7-trimethyl-6-oxo-6,7,8,9-tetrahydro-5H-pyrimido[4,5-b][1,4]diazepin-2-ylamino)-N-(1-(hydroxymethyl)cyclopentyl)-3-methoxybenzamide] |
| 7.00 to 8.00 | CN1C(=O)C(C)(C)CN(C2CCCC2)c2nc(Nc3cccc4c3CNC4=O)ncc21 [Compound I-124, 2-(1-oxoisoindolin-4-ylamino)-9-cyclopentyl-8,9-dihydro-5,7,7-trimethyl-5H-pyrimido[4,5-b][1,4]diazepin-6(7H)-one] |
| 7.00 to 8.00 | COc1cc(C(=O)N(C)C)ccc1Nc1ncc2c(n1)N(C1CCCC1)CC(C)(C)C(=O)N2C [Compound I-215, 4-(9-cyclopentyl-5,7,7-trimethyl-6-oxo-6,7,8,9-tetrahydro-5H-pyrimido[4,5-b][1,4]diazepin-2-ylamino)-3-methoxy-N,N-dimethylbenzamide] |
| > 8.00 | COc1cc(C(=O)NC2CCC2)ccc1Nc1ncc2c(n1)N(C1CCCC1)C[C@@H](C)C(=O)N2C [Compound I-186, (R)—N-cyclobutyl-4-(9-cyclopentyl-5,7-dimethyl-6-oxo-6,7,8,9-tetrahydro-5H-pyrimido[4,5-b][1,4]diazepin-2-ylamino)-3-methoxybenzamide] |
| > 8.00 | COc1cc(C(=O)N[C@@H]2CC[C@@H](O)C2)ccc1Nc1ncc2c(n1)N(C1CCCC1)CC(C)(C)C(=O)N2C [Compound I-258] |
| > 8.00 | COc1cc(C(=O)NC2CCN(CCF)CC2)ccc1Nc1ncc2c(n1)N(C1CCCC1)CC(C)(C)C(=O)N2C [Compound I-77, 4-(-9-cyclopentyl-6,7,8,9-tetrahydro-5,7,7-trimethyl-6-oxo-5H-pyrimido[4,5-b][1,4]diazepin-2-ylamino)-N-(1-(2-fluoroethyl)piperidin-4-yl)-3-methoxybenzamide] |
| 7.00 to 8.00 | CN1C(=O)C(C)(C)CN(C2CCCC2)c2nc(Nc3cccc4[nH]ncc34)ncc21 [Compound I-81, 2-(1H-indazol-4-ylamino)-9-cyclopentyl-8,9-dihydro-5,7,7-trimethyl-5H-pyrimido[4,5-b][1,4]diazepin-6(7H)-one] |
| > 8.00 | COc1cc(C(=O)NC2CCN(C)CC2)ccc1Nc1ncc2c(n1)N(C1CCCC1)C[C@H](C)C(=O)N2C [Compound I-21, 4-((S)-9-cyclopentyl-6,7,8,9-tetrahydro-5,7-dimethyl-6-oxo-5H-pyrimido[4,5-b][1,4]diazepin-2-ylamino)-3-methoxy-N-(1-methylpiperidin-4-yl)benzamide] |
| > 8.00 | CC(C)Oc1cc(C(=O)NC2CCN(C)CC2)ccc1Nc1ncc2c(n1)N(C1CCCC1)CC(C)(C)C(=O)N2C [Compound I-51, 4-(9-cyclopentyl-6,7,8,9-tetrahydro-5,7,7-trimethyl-6-oxo-5H-pyrimido[4,5-b][1,4]diazepin-2-ylamino)-3-isopropoxy-N-(1-methylpiperidin-4-yl)benzamide] |
| > 8.00 | COc1cc(C(=O)N[C@@H]2CC[C@@H](O)C2)ccc1Nc1ncc2c(n1)N(C1CCCC1)CC1(CC1)C(=O)N2C [Compound I-282, 4-(9′-cyclopentyl-5′-methyl-6′-oxo-5′,6′,8′,9′-tetrahydrospiro[cyclopropane-1,7′-pyrimido[4,5-b][1,4]diazepine]-2′-ylamino)-N-((1R,3R)-3-hydroxycyclopentyl)-3-methoxybenzamide] |
| > 8.00 | COc1cc(C(=O)NC(C)C)ccc1Nc1ncc2c(n1)N(C1CCCC1)CC(C)(C)C(=O)N2C [Compound I-238, 4-(9-cyclopentyl-5,7,7-trimethyl-6-oxo-6,7,8,9-tetrahydro-5H-pyrimido[4,5-b][1,4]diazepin-2-ylamino)-N-isopropyl-3-methoxybenzamide] |
| > 8.00 | CNC(=O)c1ccc(Nc2ncc3c(n2)N(C2CC(F)(F)C2)CC(C)(C)C(=O)N3C)c(OC)c1 [Compound I-170, 4-(9-(3,3-difluorocyclobutyl)-6,7,8,9-tetrahydro-5,7,7-trimethyl-6-oxo-5H-pyrimido[4,5-b][1,4]diazepin-2-ylamino)-3-methoxy-N-methylbenzamide] |
| > 8.00 | COc1cc(C(=O)NC[C@@H]2CCCC[C@@H]2O)ccc1Nc1ncc2c(n1)N(C1CCCC1)CC1(CC1)C(=O)N2C [Compound I-252, 4-(9′-cyclopentyl-5′-methyl-6′-oxo-5′,6′,8′,9′-tetrahydrospiro[cyclopropane-1,7′-pyrimido[4,5-b][1,4]diazepine]-2′-ylamino)-N-(((1S,2S)-2-hydroxycyclohexyl)methyl)-3-methoxybenzamide] |
| 7.00 to 8.00 | CN1C(=O)C(C)(C)CN(C2CCCC2)c2nc(Nc3cccc(NC(=O)c4ccccc4)c3)ncc21 [Compound I-154, N-(3-(9-cyclopentyl-6,7,8,9-tetrahydro-5,7,7-trimethyl-6-oxo-5H-pyrimido[4,5-b][1,4]diazepin-2-ylamino)phenyl)benzamide] |
| > 8.00 | COc1ccc(CNC(=O)c2ccc(Nc3ncc4c(n3)N(C3CCCC3)CC(C)(C)C(=O)N4C)c(OC)c2)cc1 [Compound I-213, 4-(9-cyclopentyl-5,7,7-trimethyl-6-oxo-6,7,8,9-tetrahydro-5H-pyrimido[4,5-b][1,4]diazepin-2-ylamino)-3-methoxy-N-(4-methoxybenzyl)benzamide] |
| > 8.00 | COc1cc(C(=O)NCc2cccnc2)ccc1Nc1ncc2c(n1)N(C1CCCC1)CC1(CC1)C(=O)N2C [Compound I-249, 4-(9′-cyclopentyl-5′-methyl-6′-oxo-5′,6′,8′,9′-tetrahydrospiro[cyclopropane-1,7′-pyrimido[4,5-b][1,4]diazepine]-2′-ylamino)-3-methoxy-N-(pyridin-3-ylmethyl)benzamide] |
| 7.00 to 8.00 | CC(=O)Nc1ccc(Nc2ncc3c(n2)N(C2CCCC2)CC(C)(C)C(=O)N3C)cc1 [Compound I-112, N-(4-(9-cyclopentyl-6,7,8,9-tetrahydro-5,7,7-trimethyl-6-oxo-5H-pyrimido[4,5-b][1,4]diazepin-2-ylamino)phenyl)acetamide] |
| > 8.00 | COc1cc(C(=O)NC2CCN(C)CC2)ccc1Nc1ncc2c(n1)N(C1CCCC1)CC(C)C(=O)N2C (centres unmarked) [Compound I-12, 4-(9-cyclopentyl-6,7,8,9-tetrahydro-5,7-dimethyl-6-oxo-5H-pyrimido[4,5-b][1,4]diazepin-2-ylamino)-3-methoxy-N-(1-methylpiperidin-4-yl)benzamide] |
| > 8.00 | CNC(=O)c1ccc(Nc2ncc3c(n2)N(CC2CC2)CC(C)(C)C(=O)N3C)c(OC)c1 [Compound I-58, 4-(9-(cyclopropylmethyl)-6,7,8,9-tetrahydro-5,7,7-trimethyl-6-oxo-5H-pyrimido[4,5-b][1,4]diazepin-2-ylamino)-3-methoxy-N-methylbenzamide] |
| 7.00 to 8.00 | CN1C(=O)C(C)(C)CN(C2CCCC2)c2nc(Nc3ccc(N4CCOCC4)cc3)ncc21 [Compound I-63, 2-(4-morpholinophenylamino)-9-cyclopentyl-8,9-dihydro-5,7,7-trimethyl-5H-pyrimido[4,5-b][1,4]diazepin-6(7H)-one] |
| > 8.00 | COc1cc(C(=O)N[C@H]2CC[C@H](OC(C)=O)CC2)ccc1Nc1ncc2c(n1)N(C1CCCC1)CC(C)(C)C(=O)N2C [Compound I-280, (1r,4r)-4-(4-(9-cyclopentyl-5,7,7-trimethyl-6-oxo-6,7,8,9-tetrahydro-5H-pyrimido[4,5-b][1,4]diazepin-2-ylamino)-3-methoxybenzamido)cyclohexyl acetate] |
| > 8.00 | COc1cc(C(=O)Nc2ccccc2)ccc1Nc1ncc2c(n1)N(C1CCCC1)CC(C)(C)C(=O)N2C [Compound I-200, 4-(9-cyclopentyl-5,7,7-trimethyl-6-oxo-6,7,8,9-tetrahydro-5H-pyrimido[4,5-b][1,4]diazepin-2-ylamino)-3-methoxy-N-phenylbenzamide] |
| > 8.00 | COc1cc(C(=O)NC2CCCC2)ccc1Nc1ncc2c(n1)N(C1CCCC1)C[C@@H](C)C(=O)N2C [Compound I-185, (R)—N-cyclopentyl-4-(9-cyclopentyl-5,7-dimethyl-6-oxo-6,7,8,9-tetrahydro-5H-pyrimido[4,5-b][1,4]diazepin-2-ylamino)-3-methoxybenzamide] |
